Measurements as given in patent US12528814B2, “Bifunctional degraders of interleukin-1 receptor-associated kinases and therapeutic use thereof” (NURIX THERAPEUTICS, INC., priority 2020, dated 2026).
Where two headings read alike, the source gives them in different places.

What was measured:
[1] = target: T1, IRAK4 (Homo sapiens (Human), UniProt Q9NWZ3); experiment: IRAK4 Biochemical HTRF Kinase Assay; details: read-out: IRAK4 HTRF biochemical: IC50
In short: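 HTRF KinEASE STK S1 format measuring IRAK4 phosphorylation of biotinylated peptide; reaction solution of 5 μM STK-S1, 10 mM ATP, 10 mM MgCl2 added (stock, to 10 μl final), 90 min at ambient temperature, detection 60 min. IC50 from sixteen-point duplicate curves by non-linear regression.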
Target sequence in this assay (Q9NWZ3 whole entry, species assumed): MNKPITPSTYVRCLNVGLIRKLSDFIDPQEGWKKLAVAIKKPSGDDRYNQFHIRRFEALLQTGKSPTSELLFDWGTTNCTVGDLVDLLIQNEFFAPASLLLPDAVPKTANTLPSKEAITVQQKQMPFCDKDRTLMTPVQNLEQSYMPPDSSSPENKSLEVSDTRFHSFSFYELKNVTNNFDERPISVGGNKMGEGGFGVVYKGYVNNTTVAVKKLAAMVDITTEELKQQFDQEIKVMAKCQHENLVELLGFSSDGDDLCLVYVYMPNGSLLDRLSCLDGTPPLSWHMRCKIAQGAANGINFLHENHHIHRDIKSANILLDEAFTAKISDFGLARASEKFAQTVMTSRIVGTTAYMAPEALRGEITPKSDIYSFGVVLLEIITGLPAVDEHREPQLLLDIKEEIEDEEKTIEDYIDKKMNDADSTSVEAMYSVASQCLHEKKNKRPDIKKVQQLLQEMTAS

[2] = target: T1, IRAK4; experiment: IRAK4 Degradation HiBiT Assay; details: HiBiT-tagged Jurkat cells, 4 hrs; for Dmax: Jurkat; for DC50: read-out: Cellular IRAK4 HiBiT: DC50
Target sequence in this assay (Q9NWZ3 whole entry): as the sequence (Q9NWZ3 whole entry, species assumed) above

[3] = read-out: Cellular IRAK4 HiBiT: Dmax, Table 4
[4] = read-out: Cellular IRAK4 HiBiT: Dmax, Table 5, multiple runs

Cc1ncsc1-c1ccc([C@H](C)NC(=O)[C@@H]2C[C@@H](O)CN2C(=O)[C@@H](NC(=O)CCCCCCCC(=O)N2CCN(c3nnc(-c4cnc(-c5ccc6cc(C#N)cnn56)cc4NC(C)C)s3)CC2)C(C)(C)C)cc1 [Example 36, (2S,4R)-1-((S)-2-(9-(4-(5-(6-(3-cyanopyrrolo[1,2-b]pyridazin-7-yl)-4-(isopropylamino)pyridin-3-yl)-1,3,4-thiadiazol-2-yl)piperazin-1-yl)-9-oxononanamido)-3,3-dimethylbutanoyl)-4-hydroxy-N—((S)-1-(4-(4-methylthiazol-5-yl)phenyl)ethyl)pyrrolidine-2-carboxamide]
IC50 ([1]; Table 4): 13.4 nM | IC50 ([1]; Table 5, multiple runs): 13.4 nM | Dmax [2, 3]: 84% | Dmax [2, 4]: 85% | DC50 ([2]; Table 4): 315 nM | DC50 ([2]; Table 5, multiple runs): 287 nM

CC(C)Nc1cc(-c2ccc3cc(C#N)cnn23)ncc1-c1nnc(N2CCC3(CCN(C(=O)c4ccc5c(c4)C(=O)N(C4CCC(=O)NC4=O)C5)CC3)CC2)s1 (stereo not drawn) [Example 87, 7-(5-(5-(9-(2-(2,6-dioxopiperidin-3-yl)-3-oxoisoindoline-5-carbonyl)-3,9-diazaspiro[5.5]undecan-3-yl)-1,3,4-thiadiazol-2-yl)-4-(isopropylamino)pyridin-2-yl)pyrrolo[1,2-b]pyridazine-3-carbonitrile]
IC50 ([1]; Table 5, multiple runs): 2.4 nM | Dmax [2, 4]: 70% | DC50 ([2]; Table 5, multiple runs): 15.8 nM

CNc1cc(-c2ccc3cc(C#N)cnn23)ncc1-c1nnc([C@H]2CC[C@H](NC(=O)CN3CCN(c4ccc5c(c4)C(=O)N(C4CCC(=O)NC4=O)C5=O)CC3)CC2)s1 (stereo partly drawn) [Example 65, N-((1r,4r)-4-(5-(6-(3-cyanopyrrolo[1,2-b]pyridazin-7-yl)-4-(methylamino)pyridin-3-yl)-1,3,4-thiadiazol-2-yl)cyclohexyl)-2-(4-(2-(2,6-dioxopiperidin-3-yl)-1,3-dioxoisoindolin-5-yl)piperazin-1-yl)acetamide]
IC50 ([1]; Table 4): 0.95 nM | IC50 ([1]; Table 5, multiple runs): 0.8 nM | Dmax [2, 3]: 109% | Dmax [2, 4]: 111% | DC50 ([2]; Table 4): 5.1 nM | DC50 ([2]; Table 5, multiple runs): 16.9 nM

CNc1cc(-c2ccc3cc(C#N)cnn23)ncc1-c1nnc([C@H]2CC[C@H](NC(=O)CC(C)(C)C(=O)N[C@H](C(=O)N3C[C@H](O)C[C@H]3C(=O)N[C@@H](C)c3ccc(-c4scnc4C)cc3)C(C)(C)C)CC2)s1 [Example 154, N4-((1r,4S)-4-(5-(6-(3-cyanopyrrolo[1,2-b]pyridazin-7-yl)-4-(methylamino)pyridin-3-yl)-1,3,4-thiadiazol-2-yl)cyclohexyl)-N1—((S)-1-((2S,4R)-4-hydroxy-2-(((S)-1-(4-(4-methylthiazol-5-yl)phenyl)ethyl)carbamoyl)pyrrolidin-1-yl)-3,3-dimethyl-1-oxobutan-2-yl)-2,2-dimethylsuccinamide]
IC50 ([1]; Table 5, multiple runs): 2.8 nM | Dmax [2, 4]: 68% | DC50 ([2]; Table 5, multiple runs): 544 nM

CC(C)Nc1cc(-c2ccc3cc(C#N)cnn23)ncc1-c1nnc(N2CCN(CCCCc3ccc4c(c3)CN(C3CCC(=O)NC3=O)C4=O)CC2)s1 (stereo not drawn) [Example 26, 7-(5-(5-(4-(4-(2-(2,6-dioxopiperidin-3-yl)-1-oxoisoindolin-5-yl)butyl)piperazin-1-yl)-1,3,4-thiadiazol-2-yl)-4-(isopropylamino)pyridin-2-yl)pyrrolo[1,2-b]pyridazine-3-carbonitrile]
IC50 ([1]; Table 4): 0.9 nM | IC50 ([1]; Table 5, multiple runs): 0.9 nM | Dmax [2, 3]: 87% | Dmax [2, 4]: 87% | DC50 ([2]; Table 4): 94.2 nM | DC50 ([2]; Table 5, multiple runs): 94.1 nM

CNc1cc(-c2ccc3cc(C#N)cnn23)ncc1-c1nnc(N2CC3CCC(C2)N3C2CCN(Cc3ccc4c(c3)C(=O)N(C3CCC(=O)NC3=O)C4=O)CC2)s1 (stereo not drawn) [Example 165, 7-(5-(5-(8-(1-((2-(2,6-dioxopiperidin-3-yl)-1,3-dioxoisoindolin-5-yl)methyl)piperidin-4-yl)-3,8-diazabicyclo[3.2.1]octan-3-yl)-1,3,4-thiadiazol-2-yl)-4-(methylamino)pyridin-2-yl)pyrrolo[1,2-b]pyridazine-3-carbonitrile]
IC50 ([1]; Table 5, multiple runs): 0.4 nM | Dmax [2, 4]: 100% | DC50 ([2]; Table 5, multiple runs): 21 nM

CNc1cc(-c2ccc3cc(C#N)cnn23)ncc1-c1nnc([C@H]2CC[C@H](N(C)C(=O)CN3CCN(c4ccc5c(c4)C(=O)N(C4CCC(=O)NC4=O)C5=O)CC3)CC2)s1 (stereo partly drawn) [Example 137, N-((1r,4r)-4-(5-(6-(3-cyanopyrrolo[1,2-b]pyridazin-7-yl)-4-(methylamino)pyridin-3-yl)-1,3,4-thiadiazol-2-yl)cyclohexyl)-2-(4-(2-(2,6-dioxopiperidin-3-yl)-1,3-dioxoisoindolin-5-yl)piperazin-1-yl)-N-methylacetamide]
IC50 ([1]; Table 5, multiple runs): 22.6 nM | Dmax [2, 4]: 108% | DC50 ([2]; Table 5, multiple runs): 19.1 nM

CNc1cc(-c2ccc3cc(C#N)cnn23)ncc1-c1nnc(N2CCN(C(=O)C3CCN(Cc4ccc5c(c4)C(=O)N(C4CCC(=O)NC4=O)C5=O)CC3)CC2)s1 (stereo not drawn) [Example 86, 7-(5-(5-(4-(1-((2-(2,6-dioxopiperidin-3-yl)-1,3-dioxoisoindolin-5-yl)methyl)piperidine-4-carbonyl)piperazin-1-yl)-1,3,4-thiadiazol-2-yl)-4-(methylamino)pyridin-2-yl)pyrrolo[1,2-b]pyridazine-3-carbonitrile]
IC50 ([1]; Table 5, multiple runs): 1.1 nM | Dmax [2, 4]: 105% | DC50 ([2]; Table 5, multiple runs): 18.5 nM

CNc1cc(-c2ccc3cc(C#N)cnn23)ncc1-c1nnc(N2CCN(C(=O)C3CC4(CCN(c5ccc6c(c5)C(=O)N(C5CCC(=O)NC5=O)C6=O)C4)C3)CC2)s1 (stereo not drawn) [Example 175, 7-(5-(5-(4-(6-(2-(2,6-dioxopiperidin-3-yl)-1,3-dioxoisoindolin-5-yl)-6-azaspiro[3.4]octane-2-carbonyl)piperazin-1-yl)-1,3,4-thiadiazol-2-yl)-4-(methylamino)pyridin-2-yl)pyrrolo[1,2-b]pyridazine-3-carbonitrile]
IC50 ([1]; Table 5, multiple runs): 0.5 nM | Dmax [2, 4]: 91% | DC50 ([2]; Table 5, multiple runs): 19.1 nM

CNc1cc(-c2ccc3cc(C#N)cnn23)ncc1-c1nnc(N2CC3(CCN(C(=O)C[C@H](NC(=O)[C@@H]4C[C@@H](O)CN4C(=O)[C@@H](NC(=O)C4(F)CC4)C(C)(C)C)c4ccc(-c5scnc5C)cc4)CC3)C2)s1 [Example 178]
IC50 ([1]; Table 5, multiple runs): 0.7 nM | Dmax [2, 4]: 113% | DC50 ([2]; Table 5, multiple runs): 42.8 nM

CNc1cc(-c2ccc3cc(C#N)cnn23)ncc1-c1nnc([C@H]2CC[C@@H](NC(=O)CCCCCNc3ccc4c(c3)C(=O)N(C3CCC(=O)NC3=O)C4=O)CC2)s1 (stereo partly drawn) [Example 114, N-((1s,4s)-4-(5-(6-(3-cyanopyrrolo[1,2-b]pyridazin-7-yl)-4-(methylamino)pyridin-3-yl)-1,3,4-thiadiazol-2-yl)cyclohexyl)-6-((2-(2,6-dioxopiperidin-3-yl)-1,3-dioxoisoindolin-5-yl)amino)hexanamide]
IC50 ([1]; Table 5, multiple runs): 2.9 nM | Dmax [2, 4]: 82% | DC50 ([2]; Table 5, multiple runs): 72.6 nM

CNc1cc(-c2ccc3cc(C#N)cnn23)ncc1-c1nnc([C@H]2CC[C@@H](NC(=O)[C@H]3C[C@@H](OCCNc4cccc5c4C(=O)N(C4CCC(=O)NC4=O)C5=O)C3)CC2)s1 (stereo partly drawn) [Example 113, (1s,3S)—N-((1s,4S)-4-(5-(6-(3-cyanopyrrolo[1,2-b]pyridazin-7-yl)-4-(methylamino)pyridin-3-yl)-1,3,4-thiadiazol-2-yl)cyclohexyl)-3-(2-((2-(2,6-dioxopiperidin-3-yl)-1,3-dioxoisoindolin-4-yl)amino)ethoxy)cyclobutane-1-carboxamide]
IC50 ([1]; Table 5, multiple runs): 1.2 nM | Dmax [2, 4]: 76% | DC50 ([2]; Table 5, multiple runs): 32 nM

CC(C)Nc1cc(-c2ccc3cc(C#N)cnn23)ncc1-c1nnc(N2CCN(C(=O)C3CCN(C[C@H]4CCN(c5ccc6c(c5)C(=O)N(C5CCC(=O)NC5=O)C6=O)C4)CC3)CC2)s1 (stereo partly drawn) [Example 12, 7-(5-(5-(4-(1-(((3R)-1-(2-(2,6-dioxopiperidin-3-yl)-1,3-dioxoisoindolin-5-yl)pyrrolidin-3-yl)methyl)piperidine-4-carbonyl)piperazin-1-yl)-1,3,4-thiadiazol-2-yl)-4-(isopropylamino)pyridin-2-yl)pyrrolo[1,2-b]pyridazine-3-carbonitrile]
IC50 ([1]; Table 4): 1.2 nM | IC50 ([1]; Table 5, multiple runs): 1.2 nM | Dmax [2, 3]: 92% | Dmax [2, 4]: 91% | DC50 ([2]; Table 4): 108 nM | DC50 ([2]; Table 5, multiple runs): 98.1 nM

CNc1cc(-c2ccc3cc(C#N)cnn23)ncc1-c1nnc([C@H]2CC[C@H](N(C)C(=O)C[C@H](NC(=O)[C@@H]3C[C@@H](O)CN3C(=O)C(c3cc(C)no3)C(C)C)c3ccc(-c4scnc4C)cc3)CC2)s1 (stereo partly drawn) [Example 191, (2S,4R)—N—((S)-3-(((1r,4S)-4-(5-(6-(3-cyanopyrrolo[1,2-b]pyridazin-7-yl)-4-(methylamino)pyridin-3-yl)-1,3,4-thiadiazol-2-yl)cyclohexyl)(methyl)amino)-1-(4-(4-methylthiazol-5-yl)phenyl)-3-oxopropyl)-4-hydroxy-1-(3-methyl-2-(3-methylisoxazol-5-yl)butanoyl)pyrrolidine-2-carboxamide]
IC50 ([1]; Table 5, multiple runs): 1.5 nM | Dmax [2, 4]: 110% | DC50 ([2]; Table 5, multiple runs): 48.2 nM

CC(C)Nc1cc(-c2ccc3cc(C#N)cnn23)ncc1-c1nnc(N2CCN(C(=O)CCCCCNc3ccc4c(c3)C(=O)N(C3CCC(=O)NC3=O)C4=O)CC2)s1 (stereo not drawn) [Example 6, 7-(5-(5-(4-(6-((2-(2,6-dioxopiperidin-3-yl)-1,3-dioxoisoindolin-5-yl)amino)hexanoyl)piperazin-1-yl)-1,3,4-thiadiazol-2-yl)-4-(isopropylamino)pyridin-2-yl)pyrrolo[1,2-b]pyridazine-3-carbonitrile]
IC50 ([1]; Table 4): 2.6 nM | IC50 ([1]; Table 5, multiple runs): 2.6 nM | Dmax [2, 3]: 82% | Dmax [2, 4]: 69% | DC50 ([2]; Table 4): 74.6 nM | DC50 ([2]; Table 5, multiple runs): 70 nM
